# Patent US20230407243A1, “GENETIC PLATFORM TO INVESTIGATE THE FUNCTIONS OF BACTERIAL DRUG EFFLUX PUMPS” (priority 2022, published 2023)
# Like-named read-outs stand apart in the source and are kept apart here.
# What was measured:
# Format in all cases: cell-based, Escherichia coli
# ΔtolC-Pore = assay: microbe, parasite or virus in culture; settings: for MIC: Escherichia coli, 18 h, read-out: Minimum inhibitory concentration, ΔtolC-Pore; for Minimum inhibitory concentration (MIC), Pore ΔtolC: Table 10, with pore, technical duplicate
# Procedure: (§1) For genomic integration of the pore, the fhuA ΔC/Δ4L gene and the adjacent gentamicin resistance cassette were amplified using a high-fidelity polymerase and the fhuA_40_Up/gImS_3680_Low primers (Table 4). Integration of the pore gene was performed as described above. The pore gene was introduced into the intergenic region between the glmS and pstS genes, with gene expression under the control of a constitutive promoter (Kearse, M. et al., 2012). Genomic integrations were verified using PCR (Primers: pstS_520_Up/glmS_3680_Low, Table 4). Successful integrations were transformed with pCP20 to remove the gentamicin resistance cassette as previously described. Activity of the pore was confirmed through susceptibility testing with the large antibiotic vancomycin prior to phenotypic profiling and further susceptibility testing.
# (§2) Single colonies were used to inoculate 3 mL of LB followed by incubation at 37° C. for 18 h with aeration at 220 rpm. The bacterial cells were harvested by centrifugation and resuspended in phosphate buffered saline (PBS) ([pH 7.4], 137 mM NaCl (Bioshop), 2.7 mM KCl (Bioshop), 10 mM Na2PO4 (Bioshop) and 1.8 mM K2PO4) to an OD600 nm˜1.0, followed by 1/2000 dilution into MHB II.
# (§3) To a 384-well microtiter plate (Corning, untreated polystyrene), 500 nL of compound was dispensed, in duplicate, and serially titrated 2-fold using an Echo 550 acoustic liquid dispenser (Labcyte Inc.). […] As a solvent control, 500 nL of DMSO was applied to wells that contained no compound. Using a multichannel pipette, 50 μL of the prepared bacterial inoculum was applied to each well. To enable background correction post-incubation, the OD600 nm was measured (Biotek Synergy Neo2 microplate reader) prior to incubation. The plates were incubated at 37° C. with aeration at 900 rpm for 18 h. The plates were equilibrated to room temperature and the OD600 nm measured using a BioTek Synergy Neo2 microplate reader. Data was analyzed in both Prism (GraphPad, Version 9.2.0) and Microsoft Excel (Version 16.53). Raw data were input into Microsoft Excel and the pre-incubation OD600 nm measurements were subtracted from the post-incubation OD600 nm measurements. These corrected measurements were input into Prism 9 as a grouped analysis. […] All other MIC values were adjusted accordingly and visualized using the single-color scale grouped heat map function. Identification of compound chemical properties was achieved using DataWarrior (Version 5.5.0). Using PubChem, the SMILES chemical notation for each compound was obtained and compiled in Microsoft Excel. The resulting spreadsheet was input into DataWarrior and properties were calculated from the compound chemical structures.
# wild-type (WT) K-12-Pore = assay: microbe, parasite or virus in culture; settings: Escherichia coli, technical duplicate
# Procedure: as §1, §2, §3
# EKO-35 araC::acrD Pore = assay: MIC susceptibility profiling, porinated efflux platform; settings: for Fold changes of MICs: EKO-35 araC::acrD Pore compared to EKO-35-Pore; for MIC: Escherichia coli, Table 14A, porinated, technical duplicate, read-out: Minimum inhibitory concentration, EKO-35 araC::acrD Pore
# Procedure: as §1, §2, §3
# [1] = system: EKO-35 araC::acrBD408A Pore; assay: as above; settings: for Fold changes of MICs: EKO-35 araC::acrBD408A Pore compared to EKO-35-Pore; for MIC: Escherichia coli, EKO-35 araC::acrBD408A Pore, technical duplicate, read-out: Minimum inhibitory concentration
# Procedure: as §1, §2, §3
# EKO-35 araC::emrKY Pore = assay: as above; settings: for Fold changes of MICs: EKO-35 araC::emrKY Pore compared to EKO-35-Pore; for MIC: Escherichia coli, EKO-35 araC::emrKY Pore, technical duplicate, read-out: Minimum inhibitory concentration
# Procedure: as §1, §2, §3
# EKO-35 araC::macAB = assay: MIC susceptibility profiling, efflux platform; settings: for Fold change of MICs: EKO-35 araC::macAB compared to EKO-35; for MIC: Escherichia coli, Table 13B, non-porinated, technical duplicate, read-out: Minimum Inhibitory Concentration, EKO-35 araC::macAB
# Procedure: as §2, §3
# EKO-35 araC::emrKY = assay: MIC susceptibility profiling, efflux platform; settings: for Fold change of MICs: EKO-35 araC::emrKY compared to EKO-35; for MIC: Escherichia coli, Table 13B, non-porinated, technical duplicate, read-out: Minimum Inhibitory Concentration, EKO-35 araC::emrKY
# Procedure: as §2, §3
# EKO-35 araC::acrBD408A = assay: MIC susceptibility profiling, efflux platform; settings: for Fold change of MICs: EKO-35 araC::acrBD408A compared to EKO-35; for MIC: Escherichia coli, Table 13B, non-porinated, technical duplicate, read-out: Minimum Inhibitory Concentration, EKO-35 araC::acrBD408A
# Procedure: as §2, §3
# EKO-35 araC::acrB = assay: MIC susceptibility profiling, efflux platform; settings: for Fold change of MICs: EKO-35 araC::acrB compared to EKO-35; for MIC: Escherichia coli, Table 13A, non-porinated, technical duplicate, read-out: Minimum Inhibitory Concentration, EKO-35 araC::acrB
# Procedure: as §2, §3
# EKO-35 araC::mdtBC = assay: MIC susceptibility profiling, efflux platform; settings: for Fold change of MICs: EKO-35 araC::mdtBC compared to EKO-35; for MIC: Escherichia coli, Table 13B, non-porinated, technical duplicate, read-out: Minimum Inhibitory Concentration, EKO-35 araC::mdtBC
# Procedure: as §2, §3
# EKO-35 araC::emrAB = assay: MIC susceptibility profiling, efflux platform; settings: for Fold change of MICs: EKO-35 araC::emrAB compared to EKO-35; for MIC: Escherichia coli, Table 13B, non-porinated, technical duplicate, read-out: Minimum Inhibitory Concentration, EKO-35 araC::emrAB
# Procedure: as §2, §3
# EKO-35 araC::acrD = assay: MIC susceptibility profiling, efflux platform; settings: for Fold change of MICs: EKO-35 araC::acrD compared to EKO-35; for MIC: Escherichia coli, Table 13A, non-porinated, technical duplicate, read-out: Minimum Inhibitory Concentration, EKO-35 araC::acrD
# Procedure: as §2, §3
# EKO-35 araC::mdtEF = assay: MIC susceptibility profiling, efflux platform; settings: for Fold change of MICs: EKO-35 araC::mdtEF compared to EKO-35; for MIC: Escherichia coli, Table 13A, non-porinated, technical duplicate, read-out: Minimum Inhibitory Concentration, EKO-35 araC::mdtEF
# Procedure: as §2, §3
# [2] = system: EKO-35 araC::mexCD (MexCD from P. aeruginosa); assay: MIC susceptibility profiling, efflux platform; settings: for Fold change of MICs: EKO-35 araC::mexCD compared to EKO-35; for MIC: Table 13B, non-porinated, technical duplicate, read-out: Minimum Inhibitory Concentration, EKO-35 araC::mexCD
# Procedure: as §2, §3
# EKO-35 araC::acrEF = assay: MIC susceptibility profiling, efflux platform; settings: for Fold change of MICs: EKO-35 araC::acrEF compared to EKO-35; for MIC: Escherichia coli, Table 13A, non-porinated, technical duplicate, read-out: Minimum Inhibitory Concentration, EKO-35 araC::acrEF
# Procedure: as §2, §3
# EKO-35-Pore = assay: MIC susceptibility profiling, porinated strain; settings: for Fold changes of MICs: EKO-35-Pore compared to EKO-35-Pore (reference); for MIC: Escherichia coli, technical duplicate
# Procedure: as §1, §2, §3
# [3] = system: wild-type E. coli K-12 str. BW25113; assay: microbe, parasite or virus in culture; settings: Escherichia coli, BW25113, technical duplicate
# Procedure: as §2, §3
# E. coli ΔtolC = assay: microbe, parasite or virus in culture; settings: for MIC: Escherichia coli, 18 h, read-out: Minimum Inhibitory Concentration, ΔtolC; for Minimum inhibitory concentration (MIC), ΔtolC: Table 10, without pore, technical duplicate
# Procedure: as §2, §3
# E. coli EKO-35 = assay: microbe, parasite or virus in culture; settings: for Fold change of MICs: EKO-35 compared to EKO-35 (reference); for MIC: Escherichia coli, EKO35, technical duplicate
# Procedure: as §2, §3
# [4] = Table 10, with pore, read-out: Minimum inhibitory concentration (MIC), Pore K-12
# [5] = Table 14A, porinated, read-out: Minimum inhibitory concentration, K-12 (WT)-Pore
# [6] = Table 10, with pore, read-out: Minimum inhibitory concentration (MIC), Pore EKO-35
# [7] = Table 14A, porinated, read-out: Minimum inhibitory concentration, EKO-35-Pore
# [8] = Table 10, without pore, read-out: Minimum inhibitory concentration (MIC), K-12
# [9] = Table 13A, non-porinated, read-out: Minimum Inhibitory Concentration, K-12
# [10] = Table 10, without pore, read-out: Minimum inhibitory concentration (MIC), EKO-35
# [11] = Table 13A, non-porinated, read-out: Minimum Inhibitory Concentration, EKO-35
Structure (SMILES),MIC (ΔtolC-Pore) [µg/mL],"Minimum inhibitory concentration (MIC), Pore ΔtolC (ΔtolC-Pore) [µg/mL]",MIC (wild-type (WT) K-12-Pore; [4]) [µg/mL],MIC (wild-type (WT) K-12-Pore; [5]) [µg/mL],Fold changes of MICs (EKO-35 araC::acrD Pore) [fold],Fold changes of MICs [1] [fold],Fold changes of MICs (EKO-35 araC::emrKY Pore) [fold],Fold change of MICs (EKO-35 araC::macAB) [fold],MIC (EKO-35 araC::macAB) [µg/mL],Fold change of MICs (EKO-35 araC::emrKY) [fold],MIC (EKO-35 araC::emrKY) [µg/mL],Fold change of MICs (EKO-35 araC::acrBD408A) [fold],MIC (EKO-35 araC::acrBD408A) [µg/mL],Fold change of MICs (EKO-35 araC::acrB) [fold],Fold change of MICs (EKO-35 araC::mdtBC) [fold],MIC (EKO-35 araC::mdtBC) [µg/mL],Fold change of MICs (EKO-35 araC::emrAB) [fold],MIC (EKO-35 araC::emrAB) [µg/mL],Fold change of MICs (EKO-35 araC::acrD) [fold],Fold change of MICs (EKO-35 araC::mdtEF) [fold],further results
[H]/N=C(\N/C(=N/[H])NCCCCCCNC(=N)NC(=N)Nc1ccc(Cl)cc1)Nc1ccc(Cl)cc1 [Chlorhexidine],0.391,0.391,0.781,0.781,1,1,1,1,0.391,1,0.391,1,0.391,1,1,0.391,1,0.391,1,1,"MIC (EKO-35 araC::acrD Pore): 0.391 µg/mL; MIC [1]: 0.391 µg/mL; MIC (EKO-35 araC::emrKY Pore): 0.391 µg/mL; MIC (EKO-35 araC::acrB): 0.391 µg/mL; MIC (EKO-35 araC::acrD): 0.391 µg/mL; MIC (EKO-35 araC::mdtEF): 0.391 µg/mL; Fold change of MICs [2]: 1 fold; MIC [2]: 0.391 µg/mL; Fold change of MICs (EKO-35 araC::acrEF): 1 fold; MIC (EKO-35 araC::acrEF): 0.391 µg/mL; Fold changes of MICs (EKO-35-Pore): 1 fold; MIC (EKO-35-Pore; [6]): 0.391 µg/mL; MIC (EKO-35-Pore; [7]): 0.391 µg/mL; MIC [3, 8]: 0.781 µg/mL; MIC [3, 9]: 0.781 µg/mL; MIC (E. coli ΔtolC): 0.391 µg/mL; Minimum inhibitory concentration (MIC), ΔtolC (E. coli ΔtolC): 0.391 µg/mL; Fold change of MICs (E. coli EKO-35): 1 fold; MIC (E. coli EKO-35; [10]): 0.391 µg/mL; MIC (E. coli EKO-35; [11]): 0.391 µg/mL"
"CCCCCCCCCCCCOS(=O)(=O)[O-].[Na+] [SDS, sodium dodecyl sulphate]",15.6,15.625,1000,1000,32,1,1,1,31.2,2,62.5,2,62.5,32,2,62.5,4,125,32,32,"MIC [1]: 31.2 µg/mL; MIC (EKO-35 araC::emrKY Pore): 31.2 µg/mL; efflux pump-mediated resistance vs EKO-35 (EKO-35 araC::acrD; AcrD): confirmed; Fold change of MICs [2]: 32 fold; MIC [2]: 1000 µg/mL; Fold change of MICs (EKO-35 araC::acrEF): 32 fold; Fold changes of MICs (EKO-35-Pore): 1 fold; MIC (EKO-35-Pore; [6]): 31.2 µg/mL; MIC (EKO-35-Pore; [7]): 31.2 µg/mL; MIC [3, 8]: 1000 µg/mL; MIC [3, 9]: 1000 µg/mL; MIC (E. coli ΔtolC): 15.6 µg/mL; Minimum inhibitory concentration (MIC), ΔtolC (E. coli ΔtolC): 15.625 µg/mL; Fold change of MICs (E. coli EKO-35): 1 fold; MIC (E. coli EKO-35; [10]): 31.2 µg/mL; MIC (E. coli EKO-35; [11]): 31.2 µg/mL"
CN[C@@H]1[C@H](O)[C@H](NC)[C@H]2O[C@@]3(O)C(=O)C[C@@H](C)O[C@H]3O[C@@H]2[C@H]1O [Spectinomycin],6.25,6.25,12.5,12.5,2,1,1,1,25,1,25,1,25,1,1,25,1,25,1,1,"MIC (EKO-35 araC::acrD Pore): 25 µg/mL; MIC (EKO-35 araC::acrB): 25 µg/mL; MIC (EKO-35 araC::acrD): 25 µg/mL; MIC (EKO-35 araC::mdtEF): 25 µg/mL; Fold change of MICs [2]: 1 fold; MIC [2]: 25 µg/mL; Fold change of MICs (EKO-35 araC::acrEF): 1 fold; MIC (EKO-35 araC::acrEF): 25 µg/mL; Fold changes of MICs (EKO-35-Pore): 1 fold; MIC [3, 8]: 25 µg/mL; MIC [3, 9]: 25 µg/mL; MIC (E. coli ΔtolC): 6.25 µg/mL; Minimum inhibitory concentration (MIC), ΔtolC (E. coli ΔtolC): 6.25 µg/mL; Fold change of MICs (E. coli EKO-35): 1 fold; MIC (E. coli EKO-35; [10]): 25 µg/mL; MIC (E. coli EKO-35; [11]): 25 µg/mL"
